Measured values taken from PMC4303209, “A novel phosphatidylinositol 3-kinase (PI3K) inhibitor directs a potent FOXO-dependent, p53-independent cell cycle arrest phenotype characterized by the differential induction of a subset of FOXO-regulated genes” (Breast Cancer Research : BCR, 2014).

Tested on: MCF-7 breast cancer cells
Experiment: Microarray gene expression analysis (Agilent whole human genome 4 x 44K; compound vs DMSO, LIMMA log2 fold change)
Format: cell-based
Conditions: cell cycle genes

## Oc1cccc(-c2nc(N3CCOCC3)c3oc4ncccc4c3n2)c1 [PI-103]
Gene 994
  CDC25B log2FC: -0.0551
Gene 995
  CDC25C log2FC: 1.56
Gene 997
  CDC34 log2FC: 0.51
Gene 998
  CDC42 log2FC: 0.08
Gene 1017
  CDK2 log2FC: -0.44
Gene 1018
  CDK3 log2FC: -0.00896
Gene 1019
  CDK4 log2FC: 0.17
Gene 1020
  CDK5 log2FC: 0.18
Gene 1022
  CDK7 log2FC: 0.77
Gene 1026
  CDKN1A log2FC: -1.23
Gene 1027
  CDKN1B log2FC: 1.12
Gene 1028
  CDKN1C log2FC: 0.88
Gene 1029
  CDKN2A log2FC: 0.30
Gene 1032
  CDKN2D log2FC: 0.90
Gene 1033
  CDKN3 log2FC: 0.04
Gene 1058
  CENPA log2FC: 0.29
Gene 1062
  CENPE log2FC: 1.00
Gene 1063
  CENPF log2FC: 1.50
Gene 1069
  CETN2 log2FC: 0.12
Gene 1107
  CHD3 log2FC: -0.15
Gene 1111
  CHEK1 log2FC: 0.38
Gene 1163
  CKS1B log2FC: 0.12
Gene 1164
  CKS2 log2FC: -0.62
Gene 1213
  CLTC log2FC: 0.15
Gene 1263
  PLK3 log2FC: -1.59
Gene 1386
  ATF2 log2FC: 0.88
Gene 1389
  CREBL2 log2FC: 0.85
Gene 1432
  MAPK14 log2FC: -0.30
Gene 1452
  CSNK1A1 log2FC: -0.04
Gene 1453
  CSNK1D log2FC: -0.30
Gene 1454
  CSNK1E log2FC: -0.52
Gene 1457
  CSNK2A1 log2FC: -0.65
Gene 1487
  CTBP1 log2FC: -0.24
Gene 1490
  CTGF log2FC: -0.35
Gene 1540
  CYLD log2FC: 0.38
Gene 1594
  CYP27B1 log2FC: -0.17
Gene 1613
  DAPK3 log2FC: -0.075
Gene 1642
  DDB1 log2FC: 0.26
Gene 1649
  DDIT3 log2FC: 2.08
Gene 1654
  DDX3X log2FC: -1.13
Gene 1718
  DHCR24 log2FC: -0.73
Gene 1719
  DHFR log2FC: 0.49
Gene 1739
  DLG1 log2FC: 0.12
Gene 1761
  DMRT1 log2FC: 0.0553
Gene 1781
  DYNC1I2 log2FC: 0.63
Gene 1785
  DNM2 log2FC: 0.27
Gene 1814
  DRD3 log2FC: -0.0531
Gene 1843
  DUSP1 log2FC: -0.80
Gene 1845
  DUSP3 log2FC: 0.48
Gene 1859
  DYRK1A log2FC: 0.34
Gene 1869
  E2F1 log2FC: -0.12
Gene 1870
  E2F2 log2FC: -0.38
Gene 1871
  E2F3 log2FC: -0.42
Gene 1874
  E2F4 log2FC: -0.66
Gene 1875
  E2F5 log2FC: 0.15
Gene 1876
  E2F6 log2FC: -0.52
Gene 1877
  E4F1 log2FC: 0.31
Gene 1894
  ECT2 log2FC: 0.84
Gene 1908
  EDN3 log2FC: -0.022
Gene 1950
  EGF log2FC: -0.01
Gene 1956
  EGFR log2FC: 0.48
Gene 1978
  EIF4EBP1 log2FC: 0.0433
Gene 1982
  EIF4G2 log2FC: -0.10
Gene 2010
  EMD log2FC: -0.12
Gene 2029
  ENSA log2FC: -0.0565
Gene 2059
  EPS8 log2FC: 0.46
Gene 2068
  ERCC2 log2FC: -0.27
Gene 2071
  ERCC3 log2FC: -0.11
Gene 2072
  ERCC4 log2FC: 0.06
Gene 2077
  ERF log2FC: 0.40
Gene 2079
  ERH log2FC: -0.38
Gene 2081
  ERN1 log2FC: -0.11
Gene 2113
  ETS1 log2FC: -0.82
Gene 2146
  EZH2 log2FC: 0.46
Gene 2189
  FANCG log2FC: 0.0225
Gene 2237
  FEN1 log2FC: -1.06
Gene 2241
  FER log2FC: 0.26
Gene 2247
  FGF2 log2FC: 0.18
Gene 2253
  FGF8 log2FC: -0.13
Gene 2255
  FGF10 log2FC: -0.00185
Gene 2260
  FGFR1 log2FC: -0.37
Gene 2261
  FGFR3 log2FC: -0.16
Gene 2263
  FGFR2 log2FC: 1.81
Gene 2273
  FHL1 log2FC: -0.0644
Gene 2296
  FOXC1 log2FC: -0.77
Gene 2305
  FOXM1 log2FC: -0.022
Gene 2316
  FLNA log2FC: -0.0267
Gene 2342
  FNTB log2FC: -0.45
Gene 2619
  GAS1 log2FC: 0.76
Gene 2620
  GAS2 log2FC: 0.15
Gene 2621
  GAS6 log2FC: -0.10
Gene 2672
  GFI1 log2FC: 0.03
Gene 2770
  GNAI1 log2FC: 1.07
Gene 2771
  GNAI2 log2FC: -0.26
Gene 2773
  GNAI3 log2FC: 0.53
Gene 2810
  SFN log2FC: -1.15
Gene 2827
  GPR3 log2FC: -0.30
Gene 2873
  GPS1 log2FC: 0.025
Gene 2874
  GPS2 log2FC: 0.19
Gene 2932
  GSK3B log2FC: -0.45
Gene 2935
  GSPT1 log2FC: -0.35
Gene 2956
  MSH6 log2FC: -0.0751
Gene 2965
  GTF2H1 log2FC: 0.32
Gene 3014
  H2AFX log2FC: -0.94
Gene 3054
  HCFC1 log2FC: -0.62
Gene 3065
  HDAC1 log2FC: -0.55
Gene 3066
  HDAC2 log2FC: 0.06
Gene 3082
  HGF log2FC: -0.20
Gene 3087
  HHEX log2FC: -0.29
Gene 3169
  FOXA1 log2FC: 0.13
Gene 3209
  HOXA13 log2FC: 0.04
Gene 3265
  HRAS log2FC: -0.76
Gene 3275
  PRMT2 log2FC: 0.29
Gene 3280
  HES1 log2FC: -1.26
Gene 3297
  HSF1 log2FC: 0.25
Gene 3306
  HSPA2 log2FC: -1.30
Gene 3320
  HSP90AA1 log2FC: 0.72
Gene 3398
  ID2 log2FC: 1.14
Gene 3399
  ID3 log2FC: -0.08
Gene 3458
  IFNG log2FC: -0.04
Gene 3479
  IGF1 log2FC: 0.05
Gene 3480
  IGF1R log2FC: 0.08
Gene 3481
  IGF2 log2FC: 0.0241
Gene 3552
  IL1A log2FC: -0.07
Gene 3553
  IL1B log2FC: 0.035
Gene 3576
  IL8 log2FC: -1.30
Gene 3593
  IL12B log2FC: -0.0227
Gene 3609
  ILF3 log2FC: -0.47
Gene 3611
  ILK log2FC: -0.0473
Gene 3619
  INCENP log2FC: 0.13
Gene 3622
  ING2 log2FC: 0.26
Gene 3623
  INHA log2FC: -0.06
Gene 3642
  INSM1 log2FC: -0.06
Gene 3643
  INSR log2FC: 0.74
Gene 3664
  IRF6 log2FC: 0.56
Gene 3688
  ITGB1 log2FC: 0.58
Gene 3725
  JUN log2FC: -0.94
Gene 3726
  JUNB log2FC: -0.65
Gene 3832
  KIF11 log2FC: 0.83
Gene 3875
  KRT18 log2FC: -0.44
Gene 3925
  STMN1 log2FC: 0.33
Gene 3976
  LIF log2FC: -1.84
Gene 3978
  LIG1 log2FC: 0.0377
Gene 3980
  LIG3 log2FC: -0.50
Gene 3993
  LLGL2 log2FC: -0.0661
Gene 4041
  LRP5 log2FC: -0.40
Gene 4085
  MAD2L1 log2FC: -0.14
Gene 4088
  SMAD3 log2FC: 0.24
Gene 4172
  MCM3 log2FC: 0.0559
Gene 4174
  MCM5 log2FC: 0.04
Gene 4176
  MCM7 log2FC: 0.08
Gene 4193
  MDM2 log2FC: -0.11
Gene 4194
  MDM4 log2FC: -0.14
Gene 4218
  RAB8A log2FC: -0.76
Gene 4282
  MIF log2FC: 0.23
Gene 4288
  MKI67 log2FC: 0.06
